Holding throughout (type): functional
The nature of assay [1]: Antifungal activity against Monilia albican ATCC 10231 after 24 to 72 hrs by NCCLS method.
A further assay has as its system Staphylococcus aureus. Description: Antibacterial activity against Staphylococcus aureus ATCC 6538 after 24 hrs by NCCLS method.
The subject of the next assay is Escherichia coli. Kind of assay: Antibacterial activity against Escherichia coli ATCC 8099 after 24 hrs by NCCLS method.

In brackets after ≈: the same amount, converted by molar mass. Activity calls are given as the source filed them.

15 molecules from ChEMBL document CHEMBL2346514, “Efficient synthesis and antimicrobial activity of some novel S-β-d-glucosides of 5-aryl-1,2,4-triazole-3-thiones derivatives” (2013) can be followed below.

Broadly, the MFC is the smallest concentration meeting the test's criterion for killing the fungus. Low values mean greater fungicidal potency, high ones weaker fungicidal potency. The term MIC denotes the least concentration at which growth counts as inhibited. One may read the MBC as the smallest concentration meeting the test's criterion for killing.

Take `CC(=O)OC[C@H]1O[C@@H](Sc2nnc(-c3ccccc3O)n2/N=C/c2ccccc2)[C@H](OC(C)=O)[C@@H](OC(C)=O)[C@@H]1OC(C)=O`: in assay [1], the MFC was 32 µg/mL (≈ 51.1 µM) and the MIC turned out to be 32 µg/mL (≈ 51.1 µM). Also, in the assay with Staphylococcus aureus (ATCC 6538, 24 h), the MBC was 256 µg/mL (≈ 409 µM) and the minimum inhibitory concentration (MIC) came out at 128 µg/mL (≈ 204 µM). In the assay on Escherichia coli (ATCC 8099, 24 h), this molecule yielded an MBC of 256 µg/mL (≈ 409 µM) and an MIC of 128 µg/mL (≈ 204 µM).

Consider `CC(=O)OC[C@H]1O[C@@H](Sc2nnc(-c3ccccc3)n2/N=C/c2cc(Br)cc(Br)c2O)[C@H](OC(C)=O)[C@@H](OC(C)=O)[C@@H]1OC(C)=O`, for which, in assay [1], the MFC was 16 µg/mL (≈ 20.4 µM) and it took 16 µg/mL (≈ 20.4 µM) to inhibit growth (MIC). In the assay with Staphylococcus aureus (ATCC 6538, 24 h), this molecule gave an MBC of 32 µg/mL (≈ 40.8 µM) and an MIC of 16 µg/mL (≈ 20.4 µM). In the assay with Escherichia coli (ATCC 8099, 24 h), this molecule had an MBC of 16 µg/mL (≈ 20.4 µM) and an MIC of 16 µg/mL (≈ 20.4 µM).

In assay [1], `CC(=O)OC[C@H]1O[C@@H](Sc2nnc(-c3ccccc3O)n2/N=C/c2ccccc2Cl)[C@H](OC(C)=O)[C@@H](OC(C)=O)[C@@H]1OC(C)=O` yielded an MFC of 64 µg/mL (≈ 96.8 µM) and an MIC of 32 µg/mL (≈ 48.4 µM). For the same molecule, in the assay on Staphylococcus aureus (ATCC 6538, 24 h), the MBC is 128 µg/mL (≈ 194 µM) and the MIC turned out to be 128 µg/mL (≈ 194 µM). Besides, in the assay with Escherichia coli (ATCC 8099, 24 h), the MBC was 128 µg/mL (≈ 194 µM) and the MIC amounted to 128 µg/mL (≈ 194 µM).

Turning to `CC(=O)OC[C@H]1O[C@@H](Sc2nnc(-c3ccccc3O)n2/N=C/c2ccccc2O)[C@H](OC(C)=O)[C@@H](OC(C)=O)[C@@H]1OC(C)=O`, in assay [1], the MFC came to 64 µg/mL (≈ 99.6 µM) and it took 64 µg/mL (≈ 99.6 µM) to inhibit growth (MIC). For the same molecule, in the assay with Staphylococcus aureus (ATCC 6538, 24 h), the MBC is 128 µg/mL (≈ 199 µM) and inhibition of growth (MIC) required 128 µg/mL (≈ 199 µM). In the assay on Escherichia coli (ATCC 8099, 24 h), the MBC was found to be 64 µg/mL (≈ 99.6 µM) and the MIC is 64 µg/mL (≈ 99.6 µM).

For the molecule `CC(=O)OC[C@H]1O[C@@H](Sc2nnc(-c3ccccc3)n2/N=C/c2cc(Br)ccc2O)[C@H](OC(C)=O)[C@@H](OC(C)=O)[C@@H]1OC(C)=O`, in assay [1], the MFC came out at 16 µg/mL (≈ 22.7 µM). In addition, the MIC in assay [1] worked out at 16 µg/mL (≈ 22.7 µM); in the assay with Staphylococcus aureus (ATCC 6538, 24 h) it was 32 µg/mL (≈ 45.4 µM); against Escherichia coli (ATCC 8099, 24 h), 128 µg/mL (≈ 181 µM). Further, the MBC in the assay on Staphylococcus aureus (ATCC 6538, 24 h) is 32 µg/mL (≈ 45.4 µM); against Escherichia coli (ATCC 8099, 24 h), 128 µg/mL (≈ 181 µM).

In assay [1], `CC(=O)OC[C@H]1O[C@@H](Sc2nnc(-c3ccccc3)n2/N=C/c2ccccc2O)[C@H](OC(C)=O)[C@@H](OC(C)=O)[C@@H]1OC(C)=O` had an MFC of 64 µg/mL (≈ 102 µM) and an MIC of 32 µg/mL (≈ 51.1 µM). In the assay on Staphylococcus aureus (ATCC 6538, 24 h), this molecule displayed an MBC of 128 µg/mL (≈ 204 µM) and an MIC of 64 µg/mL (≈ 102 µM). Besides, in the assay with Escherichia coli, the MBC result is “inactive” and the MIC result was “inactive”.

In assay [1], `CC(=O)OC[C@H]1O[C@@H](Sc2nnc(-c3ccccc3O)n2/N=C/c2cc(Br)ccc2O)[C@H](OC(C)=O)[C@@H](OC(C)=O)[C@@H]1OC(C)=O` showed an MFC of 16 µg/mL (≈ 22.2 µM) and an MIC of 16 µg/mL (≈ 22.2 µM). In the assay with Staphylococcus aureus (ATCC 6538, 24 h), the MBC was found to be 128 µg/mL (≈ 177 µM) and the lowest concentration to inhibit growth (MIC) was 64 µg/mL (≈ 88.7 µM). In the assay with Escherichia coli (ATCC 8099, 24 h), this molecule returned an MBC of 128 µg/mL (≈ 177 µM) and an MIC of 128 µg/mL (≈ 177 µM).

As for GENTAMICIN, in assay [1], the MFC worked out at 4 µg/mL and the MIC is 4 µg/mL. Also, in the assay on Staphylococcus aureus, the MBC was 2 µg/mL and the MIC came to 2 µg/mL. Moreover, in the assay on Escherichia coli, the MBC was 4 µg/mL and 2 µg/mL was the least that counted as inhibitory (MIC).

In assay [1], `OC(Cn1cncn1)(Cn1cncn1)c1ccc(F)cc1F` [FLUCONAZOLE] yielded an MFC of 4 µg/mL (≈ 13.1 µM) and an MIC of 2 µg/mL (≈ 6.53 µM). In the assay on Staphylococcus aureus (ATCC 6538, 24 h), the MBC came to 32 µg/mL (≈ 104 µM) and the MIC turned out to be 16 µg/mL (≈ 52.2 µM). Further, in the assay with Escherichia coli (ATCC 8099, 24 h), the minimal bactericidal concentration (MBC) is 128 µg/mL (≈ 418 µM) and 128 µg/mL (≈ 418 µM) was the least that counted as inhibitory (MIC).

In assay [1], `CC(=O)OC[C@H]1O[C@@H](Sc2nnc(-c3ccccc3)n2/N=C/c2ccccc2Cl)[C@H](OC(C)=O)[C@@H](OC(C)=O)[C@@H]1OC(C)=O` gave an MFC of 64 µg/mL (≈ 99.2 µM) and an MIC of 64 µg/mL (≈ 99.2 µM). Further, in the assay on Staphylococcus aureus (ATCC 6538, 24 h), the MBC was 128 µg/mL (≈ 198 µM) and the MIC came to 128 µg/mL (≈ 198 µM). Besides, in the assay on Escherichia coli (ATCC 8099, 24 h), the MBC is 128 µg/mL (≈ 198 µM) and the MIC is 128 µg/mL (≈ 198 µM).

With `CC(=O)OC[C@H]1O[C@@H](Sc2nnc(-c3ccccc3O)n2/N=C/c2cc(Cl)ccc2O)[C@H](OC(C)=O)[C@@H](OC(C)=O)[C@@H]1OC(C)=O`, in assay [1], the MFC turned out to be 32 µg/mL (≈ 47.3 µM) and the MIC stood at 16 µg/mL (≈ 23.6 µM). In the assay on Staphylococcus aureus (ATCC 6538, 24 h), this molecule returned an MBC of 128 µg/mL (≈ 189 µM) and an MIC of 128 µg/mL (≈ 189 µM). In the assay on Escherichia coli (ATCC 8099, 24 h), this molecule registered an MBC of 256 µg/mL (≈ 378 µM) and an MIC of 128 µg/mL (≈ 189 µM).

As to `CC(=O)OC[C@H]1O[C@@H](Sc2nnc(-c3ccccc3)n2/N=C/c2ccccc2)[C@H](OC(C)=O)[C@@H](OC(C)=O)[C@@H]1OC(C)=O`, the MFC in assay [1] amounted to 64 µg/mL (≈ 105 µM). The MIC amounted to 32 µg/mL (≈ 52.4 µM) in assay [1]; 64 µg/mL (≈ 105 µM) against Staphylococcus aureus (ATCC 6538, 24 h); 128 µg/mL (≈ 210 µM) in the assay on Escherichia coli (ATCC 8099, 24 h). Besides, the MBC was found to be 64 µg/mL (≈ 105 µM) against Staphylococcus aureus (ATCC 6538, 24 h) and 128 µg/mL (≈ 210 µM) with Escherichia coli (ATCC 8099, 24 h).

In assay [1], `Oc1cc(Cl)ccc1Oc1ccc(Cl)cc1Cl` [TRICLOSAN] had an MFC of 64 µg/mL (≈ 221 µM) and an MIC of 32 µg/mL (≈ 111 µM). In addition, in the assay with Staphylococcus aureus (ATCC 6538, 24 h), the MBC came out at 4 µg/mL (≈ 13.8 µM) and the lowest concentration to inhibit growth (MIC) was 4 µg/mL (≈ 13.8 µM). In the assay with Escherichia coli (ATCC 8099, 24 h), this molecule displayed an MBC of 4 µg/mL (≈ 13.8 µM) and an MIC of 2 µg/mL (≈ 6.91 µM).

Take `CC(=O)OC[C@H]1O[C@@H](Sc2nnc(-c3ccccc3O)n2/N=C/c2cc(Br)cc(Br)c2O)[C@H](OC(C)=O)[C@@H](OC(C)=O)[C@@H]1OC(C)=O`: the MFC in assay [1] was found to be 32 µg/mL (≈ 40 µM). Besides, the MIC in assay [1] turned out to be 16 µg/mL (≈ 20 µM); in the assay with Staphylococcus aureus (ATCC 6538, 24 h), 32 µg/mL (≈ 40 µM); with Escherichia coli (ATCC 8099, 24 h) it was 16 µg/mL (≈ 20 µM). Further, the MBC in the assay with Staphylococcus aureus (ATCC 6538, 24 h) turned out to be 32 µg/mL (≈ 40 µM); against Escherichia coli (ATCC 8099, 24 h), 16 µg/mL (≈ 20 µM).

In assay [1], `CC(=O)OC[C@H]1O[C@@H](Sc2nnc(-c3ccccc3)n2/N=C/c2cc(Cl)ccc2O)[C@H](OC(C)=O)[C@@H](OC(C)=O)[C@@H]1OC(C)=O` came in with an MFC of 32 µg/mL (≈ 48.4 µM) and an MIC of 16 µg/mL (≈ 24.2 µM). In the assay with Staphylococcus aureus (ATCC 6538, 24 h), this molecule had an MBC of 128 µg/mL (≈ 194 µM) and an MIC of 64 µg/mL (≈ 96.8 µM). Also, in the assay with Escherichia coli (ATCC 8099, 24 h), the MBC is 128 µg/mL (≈ 194 µM) and it took 128 µg/mL (≈ 194 µM) to inhibit growth (MIC).
